# Earlier results, collected in article PMC4382562 (Current Chemical Genomics and Translational Medicine, 2015).
# System: iCell Neurons
# Details: read-out: Neurite outgrowth IC50 (high content image-based analysis), previously reported
row,SMILES,IC50
1,CCCCCC[C@H]1C(=O)O[C@H](C)[C@H](NC(=O)c2cccc(NC=O)c2O)C(=O)O[C@@H](C)[C@@H]1OC(=O)CC(C)C [Antimycin A],~13 µM
2,CN[C@@H]1C[C@H]2O[C@@](C)([C@@H]1OC)n1c3ccccc3c3c4c(c5c6ccccc6n2c5c31)C(=O)NC4 [Staurosporine],~0.9 µM
